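Each compound was tested at five concentrations against cells in 96-well plates for 48 hours. TGI denotes the concentration required for complete inhibition of growth.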
Legend:
Assay in all cases: inhibition of tumour cell growth, NCI panel, 48 h
786-0 renal = system: 786-0 renal
A549 NSCLC = system: A549 NSCLC
BT-549 breast = system: BT-549 breast
CAKI-1 renal = system: CAKI-1 renal
COLO 205 colon = system: COLO 205 colon
HCC-2998 colon = system: HCC-2998 colon
HCT-116 colon = system: HCT-116 colon
KM12 colon = system: KM12 colon
LOX IMVI melanoma = system: LOX IMVI melanoma
MALME-3M melanoma = system: MALME-3M melanoma
MDA-MB-231 breast = system: MDA-MB-231 breast
NCI-H23 lung = system: NCI-H23 lung
NCI-H460 lung = system: NCI-H460 lung
PC-3 prostate = system: PC-3 prostate
SR leukemia = system: SR leukemia
TK-10 renal = system: TK-10 renal
UACC-257 melanoma = system: UACC-257 melanoma
RXF 393 renal = system: RXF 393 renal
SK-MEL-2 melanoma = system: SK-MEL-2 melanoma
SNB-75 CNS = system: SNB-75 CNS

SMILES	TGI (786-0 renal) [µM]	TGI (A549 NSCLC) [µM]	TGI (BT-549 breast) [µM]	TGI (CAKI-1 renal) [µM]	TGI (COLO 205 colon) [µM]	TGI (HCC-2998 colon) [µM]	TGI (HCT-116 colon) [µM]	TGI (KM12 colon) [µM]	TGI (LOX IMVI melanoma) [µM]	TGI (MALME-3M melanoma) [µM]	TGI (MDA-MB-231 breast) [µM]	TGI (NCI-H23 lung) [µM]	TGI (NCI-H460 lung) [µM]	TGI (PC-3 prostate) [µM]	TGI (SR leukemia) [µM]	TGI (TK-10 renal) [µM]	TGI (UACC-257 melanoma) [µM]	TGI (RXF 393 renal) [µM]	TGI (SK-MEL-2 melanoma) [µM]	TGI (SNB-75 CNS) [µM]
COC(=O)C1=C(C)C(=O)[C@]23C(CCCC[C@H]12)C(=O)[C@H](C(=O)OC)C3C (stereo partly drawn)	> 100	> 100	> 100	> 100	> 100	> 100	> 100	> 100	> 100	> 100	> 100	> 100	> 100	> 100	> 100	> 100	> 100			
O=C(O)Cc1c(-c2ccc([N+](=O)[O-])cc2)c(=O)oc2cc(O)ccc12	> 100	> 100	59.1		> 100	55.5	73.6	93.5	> 100	59.9	> 100	> 100	> 100	94.5	> 100	> 100	53.5	> 100	50.7	
Fc1ccc(C(OCCN2CCN(CCCCl)CC2)c2ccc(F)cc2)cc1	94.6	> 100	83.6	> 100	32.7	42.5	46.6	38	32.9	31.8	75.5	50.5	55.5	> 100	61.9	> 100	47.5	44.4	52	
C[C@@]1(O)C[C@@H](N2C(=O)O[C@@H](c3ccccc3)[C@H]2c2ccccc2)[C@@H]1COCc1ccccc1	48.9	97.9	51.2	> 100	36.4	58.4	47.4	74.3	32.9	46.8	39.8	43.6	68.1	50.3	52.7	99.7	36.7	80.2	27.5	
CC1(C)CC(C2=NCCO2)CC(C)(C)N1	> 100	> 100	> 100	> 100	> 100		> 100		> 100	> 100	> 100	> 100		> 100	> 100	> 100	> 100	> 100	> 100	> 100
COC(=O)C(Cc1ccccc1)NP(=O)(O)OCC1OC(n2cc(Br)c(=O)[nH]c2=O)CC1O (stereo not drawn)	> 100	> 100	> 100		> 100	> 100	> 100	> 100	> 100	> 100	> 100	> 100	> 100	> 100	> 100	> 100	> 100	> 100	> 100	> 100
O=S1(=O)OCCOS(=O)(=O)C1S(=O)(=O)c1ccc2ccccc2c1	> 100	> 100	> 100	> 100	> 100	> 100	> 100	> 100	> 100	> 100	> 100	> 100	> 100	> 100	> 100	> 100	> 100		> 100	
Cn1c(=O)c2c(nc3n(CCCCl)c(=O)ccn23)n(C)c1=O	> 100	> 100	> 100	> 100	> 100	> 100	> 100	> 100	> 100		> 100	> 100	> 100	> 100	> 100	> 100	> 100	> 100	> 100	> 100
CN1CCN(C(=S)N(C(=O)c2ccc(Cl)cc2)c2ccccc2)CC1	> 100	> 100	> 100		> 100	> 100		> 100	> 100	> 100	> 100	> 100	> 100		> 100	> 100	> 100	> 100	> 100	> 100
COc1ccc(CCCCl)c(C2=NCCc3cc(OC)c(OC)cc32)c1	> 100	> 100	> 100	> 100	68.9	> 100	> 100	> 100			> 100	> 100	> 100	> 100	> 100	> 100	> 100	> 100	> 100	> 100
CCN(C(=O)N[C@@H](Cc1ccccc1)C(=O)N[C@@H](CC(C)C)C(=O)OC)c1ccccc1	40.5	> 100	> 100	84.7	32.2	> 100	39.2	> 100	30.1		> 100	53.8	24.9	97.4	23.9	> 100	54.3	37.7	> 100	
COC(=O)C1=C(C)NC(C)=C(C(=O)OC)C1c1ccccc1NO	> 100	> 100	> 100	> 100	> 100	> 100	48.2	> 100	> 100	> 100	> 100	> 100	> 100	> 100	> 100	> 100	> 100	> 100	> 100	
